The source of these data is ChEMBL document CHEMBL5291721, “A preclinical secondary pharmacology resource illuminates target-adverse drug reaction associations of marketed drugs” (Nat Commun, 2023).

In test [1] the target is T1, Muscarinic acetylcholine receptor M1 (Homo sapiens, UniProt P11229).
T1 sequence (P11229 whole entry): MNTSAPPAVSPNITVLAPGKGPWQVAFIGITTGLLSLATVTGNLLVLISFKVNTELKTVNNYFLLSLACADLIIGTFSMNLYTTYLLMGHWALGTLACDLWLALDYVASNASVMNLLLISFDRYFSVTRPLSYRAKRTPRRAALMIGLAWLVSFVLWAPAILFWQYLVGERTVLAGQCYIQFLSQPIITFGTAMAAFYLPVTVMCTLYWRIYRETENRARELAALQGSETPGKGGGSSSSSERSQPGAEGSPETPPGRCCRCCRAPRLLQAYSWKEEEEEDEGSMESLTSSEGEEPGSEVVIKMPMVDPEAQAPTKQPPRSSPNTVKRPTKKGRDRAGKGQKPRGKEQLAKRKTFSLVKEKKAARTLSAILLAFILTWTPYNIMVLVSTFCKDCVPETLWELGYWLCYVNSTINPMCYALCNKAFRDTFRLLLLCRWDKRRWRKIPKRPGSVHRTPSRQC
In kind it is functional, cell-based.

In test [2] the target is T2, Alpha-1A adrenergic receptor (Homo sapiens, UniProt P35348).
T2 sequence (P35348 whole entry): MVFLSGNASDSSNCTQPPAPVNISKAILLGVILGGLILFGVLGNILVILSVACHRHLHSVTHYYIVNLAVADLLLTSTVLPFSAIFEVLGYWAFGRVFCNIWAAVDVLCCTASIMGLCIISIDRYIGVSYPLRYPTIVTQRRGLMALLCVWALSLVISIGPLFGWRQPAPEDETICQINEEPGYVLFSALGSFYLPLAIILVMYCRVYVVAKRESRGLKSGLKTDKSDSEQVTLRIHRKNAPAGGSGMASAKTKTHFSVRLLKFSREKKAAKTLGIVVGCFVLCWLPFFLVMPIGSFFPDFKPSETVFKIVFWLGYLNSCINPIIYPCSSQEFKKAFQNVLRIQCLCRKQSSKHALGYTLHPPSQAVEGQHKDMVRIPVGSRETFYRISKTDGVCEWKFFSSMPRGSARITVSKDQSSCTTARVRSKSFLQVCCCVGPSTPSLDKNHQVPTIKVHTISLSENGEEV
In kind it is functional, cell-based.

Test [3] addresses Gamma-aminobutyric acid receptor subunit alpha-1 (Rattus norvegicus, UniProt P62813).
Test [4] concerns the target T3, Estrogen receptor (Homo sapiens, UniProt P03372).
T3 sequence (P03372 whole entry): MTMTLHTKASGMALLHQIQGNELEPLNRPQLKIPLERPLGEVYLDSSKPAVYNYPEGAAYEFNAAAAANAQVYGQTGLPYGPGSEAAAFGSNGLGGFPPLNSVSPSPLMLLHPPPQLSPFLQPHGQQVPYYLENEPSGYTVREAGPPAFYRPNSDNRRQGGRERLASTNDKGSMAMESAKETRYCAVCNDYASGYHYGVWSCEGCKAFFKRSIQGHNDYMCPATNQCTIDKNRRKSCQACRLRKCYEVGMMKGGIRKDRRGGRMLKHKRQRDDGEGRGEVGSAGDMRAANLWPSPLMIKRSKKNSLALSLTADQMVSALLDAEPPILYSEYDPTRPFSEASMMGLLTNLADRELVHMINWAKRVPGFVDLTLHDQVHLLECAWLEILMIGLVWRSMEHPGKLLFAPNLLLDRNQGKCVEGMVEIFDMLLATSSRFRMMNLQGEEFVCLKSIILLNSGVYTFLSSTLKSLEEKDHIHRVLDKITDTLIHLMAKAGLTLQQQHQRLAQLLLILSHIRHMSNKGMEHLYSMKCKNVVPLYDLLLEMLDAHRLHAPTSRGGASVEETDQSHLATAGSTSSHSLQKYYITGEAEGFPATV

In test [5] the target is D(3) dopamine receptor (Homo sapiens, UniProt P35462).
Test [6] deals with Histamine H1 receptor (Homo sapiens, UniProt P35367).
In test [7] the target is Beta-2 adrenergic receptor (Homo sapiens, UniProt P07550). In kind it is functional, cell-based.
Further: assay procedure not described here.

Sequence of Histamine H1 receptor (P35367 whole entry): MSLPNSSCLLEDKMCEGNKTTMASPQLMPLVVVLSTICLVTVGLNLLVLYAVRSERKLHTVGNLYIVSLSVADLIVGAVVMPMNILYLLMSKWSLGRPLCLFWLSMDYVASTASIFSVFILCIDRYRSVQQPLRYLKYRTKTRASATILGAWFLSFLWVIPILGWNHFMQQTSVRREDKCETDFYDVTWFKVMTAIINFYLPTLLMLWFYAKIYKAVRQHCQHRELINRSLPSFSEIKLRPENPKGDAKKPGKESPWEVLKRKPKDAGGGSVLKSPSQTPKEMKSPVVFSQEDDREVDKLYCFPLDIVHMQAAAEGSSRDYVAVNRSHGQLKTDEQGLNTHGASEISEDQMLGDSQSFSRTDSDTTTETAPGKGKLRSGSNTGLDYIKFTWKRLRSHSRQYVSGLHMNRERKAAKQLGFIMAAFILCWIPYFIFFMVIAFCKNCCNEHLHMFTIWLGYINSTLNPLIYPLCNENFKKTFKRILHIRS
Sequence of Gamma-aminobutyric acid receptor subunit alpha-1 (P62813 whole entry): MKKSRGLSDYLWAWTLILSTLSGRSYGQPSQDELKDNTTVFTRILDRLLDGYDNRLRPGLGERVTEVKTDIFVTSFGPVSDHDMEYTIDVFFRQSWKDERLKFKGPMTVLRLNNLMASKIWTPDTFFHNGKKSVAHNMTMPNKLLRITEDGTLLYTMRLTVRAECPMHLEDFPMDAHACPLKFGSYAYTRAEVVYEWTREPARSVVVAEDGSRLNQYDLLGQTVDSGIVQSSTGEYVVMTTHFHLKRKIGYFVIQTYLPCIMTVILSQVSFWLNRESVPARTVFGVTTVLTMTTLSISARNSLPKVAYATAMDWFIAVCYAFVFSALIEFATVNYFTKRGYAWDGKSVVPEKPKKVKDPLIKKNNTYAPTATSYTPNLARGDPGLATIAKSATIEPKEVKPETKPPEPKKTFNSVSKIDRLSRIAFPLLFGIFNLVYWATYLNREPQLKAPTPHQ
Sequence of D(3) dopamine receptor (P35462 whole entry): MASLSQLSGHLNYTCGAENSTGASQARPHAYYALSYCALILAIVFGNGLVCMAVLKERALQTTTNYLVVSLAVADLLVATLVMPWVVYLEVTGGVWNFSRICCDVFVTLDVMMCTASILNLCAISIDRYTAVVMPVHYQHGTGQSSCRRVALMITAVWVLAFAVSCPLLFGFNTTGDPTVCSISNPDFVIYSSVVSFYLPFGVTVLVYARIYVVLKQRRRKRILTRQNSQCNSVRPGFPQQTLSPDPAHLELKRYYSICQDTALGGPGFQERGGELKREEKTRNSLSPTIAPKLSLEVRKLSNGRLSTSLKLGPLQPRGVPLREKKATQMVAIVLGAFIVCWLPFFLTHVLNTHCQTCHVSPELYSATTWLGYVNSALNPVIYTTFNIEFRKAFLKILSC
Sequence of Beta-2 adrenergic receptor (P07550 whole entry): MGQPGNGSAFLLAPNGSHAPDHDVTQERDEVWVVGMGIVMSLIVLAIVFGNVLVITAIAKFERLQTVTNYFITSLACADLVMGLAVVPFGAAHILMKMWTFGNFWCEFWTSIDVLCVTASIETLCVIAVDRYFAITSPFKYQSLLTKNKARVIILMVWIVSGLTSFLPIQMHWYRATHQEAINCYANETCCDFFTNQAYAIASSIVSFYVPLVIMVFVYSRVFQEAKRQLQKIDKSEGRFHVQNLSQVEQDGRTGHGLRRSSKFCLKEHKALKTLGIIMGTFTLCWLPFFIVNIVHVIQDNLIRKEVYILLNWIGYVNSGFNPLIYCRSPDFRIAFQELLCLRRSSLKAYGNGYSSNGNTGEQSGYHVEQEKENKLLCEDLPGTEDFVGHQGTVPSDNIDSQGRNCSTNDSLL

Broadly, the AC50 is the concentration at which the activity in the assay is half-maximal. In the case of `CCC(CC)(CC(=O)Nc1cccc(/C=C/c2nc(C3CCC3)cs2)c1)C(=O)O`, the AC50 in test [1] was above 3 µM; in test [2] it was above 3 µM; in test [3], above 30 µM; in test [4], above 30 µM; in test [5] it was above 30 µM.
Take `C[S+](CC[C@H](N)C(=O)[O-])C[C@H]1O[C@@H](n2cnc3c(N)ncnc32)[C@H](O)[C@@H]1O` (stereo partly drawn) [ADEMETIONINE]: the half-maximal activity concentration (AC50) in test [1], in test [2], in test [3] and in test [5] was above 30 µM in each case.
Consider `CCC(C)(C)c1ccc(CC(C)CN2C[C@@H](C)O[C@@H](C)C2)cc1` (stereo partly drawn) [AMOROLFINE], for which the AC50 in test [1] is 10.8 µM; in test [2], above 30 µM; in test [3], above 30 µM; in test [4] it was above 30 µM; in test [5], 22 µM.
On to `NC(=O)C[C@H](N)C(=O)O` [ASPARAGINE], for which the AC50 in test [1], in test [2], in test [3] and in test [5] was above 30 µM in each case.
As to `Clc1ccc(C(OCCN2CCCCC2)c2ccccc2)cc1` (stereo not drawn) [CLOPERASTINE], the half-maximal activity concentration (AC50) in test [1] was 0.551 µM; in test [2], 1.27 µM; in test [3] it was above 30 µM; in test [4], above 30 µM; in test [5], 1.05 µM.
`CN(C)CCC=C1c2ccccc2C=Cc2ccccc21` [CYCLOBENZAPRINE]: the concentration at half-maximal activity (AC50) in test [6] was 0.021 µM; in test [7] it was above 30 µM.
With `CN(C)CC/C=C1\c2ccccc2CSc2ccccc21` [DOTHIEPIN], the AC50 was 0.019 µM in test [6] and above 30 µM in test [7].
As to `Clc1cc(Cl)c(OCC#CI)cc1Cl` [HALOPROGIN], the AC50 was above 30 µM in test [2], above 30 µM in test [3], above 30 µM in test [4] and 1.16 µM in test [5].
For the molecule `CCN(CC)CCNc1ccc(CO)c2sc3ccccc3c(=O)c12` [HYCANTHONE], the AC50 in test [1] is 17.6 µM; in test [2], 1.4 µM; in test [3], above 30 µM; in test [4], above 30 µM; in test [5], 19.5 µM.
As for `Cc1cc(OP(=O)(O)O)c2ccccc2c1OP(=O)(O)O` [MENADIOL SODIUM DIPHOSPHATE], the concentration at half-maximal activity (AC50) in test [1], in test [2], in test [3] and in test [5] was above 30 µM in each case.
Regarding `Cc1ccccc1OCC(O)CO` (stereo not drawn) [MEPHENESIN], the AC50 in test [1] was above 30 µM; in test [2], above 30 µM; in test [3], above 10 µM; in test [5], above 30 µM.
With `CCN(CC)CCc1nc(-c2ccccc2)no1` [OXOLAMINE], the AC50 in test [1], in test [2], in test [3] and in test [4] was above 30 µM throughout.
In the case of `CC(C)(C)C(=O)OCOC(=O)[C@@H]1N2C(=O)[C@@H](NC(=O)[C@H](N)c3ccccc3)[C@H]2SC1(C)C` [PIVAMPICILLIN], the AC50 was 23 µM in test [1]; above 30 µM in test [2]; above 30 µM in test [3]; above 30 µM in test [4]; above 30 µM in test [5].
On to `COc1cc2nc(N3CCN(C(=O)c4ccco4)CC3)nc(N)c2cc1OC` [PRAZOSIN], for which the AC50 in test [3], in test [4] and in test [5] was above 30 µM in each case.
With `O=c1[nH]c(=O)n(C2CCCO2)cc1F` (stereo not drawn) [TEGAFUR], the half-maximal activity concentration (AC50) in test [2] and in test [3] was above 30 µM each time.
As to `CCCCCNC(=N)N/N=C/c1c[nH]c2ccc(OC)cc12` [TEGASEROD], the AC50 was above 3 µM in test [1]; 1.16 µM in test [2]; above 30 µM in test [6]; above 30 µM in test [3]; 5.62 µM in test [5].
As for `C=CCCCCCCCCC(=O)O` [UNDECYLENIC ACID], the AC50 in test [3], in test [4] and in test [5] was above 30 µM in each case.
In the case of `CN(C)CCc1c[nH]c2ccc(C[C@H]3COC(=O)N3)cc12` [ZOLMITRIPTAN], the concentration at half-maximal activity (AC50) in test [6] and in test [7] was above 30 µM each time.
